Assay results from US20240369551A1 (priority 2021, published 2024).
Ends that are not written are not given here.

Test system: COVID19 anti-S1 IgG
Test: UV-vis aggregation test of peptide-coated nanoparticles (Examples 1, 6, 7, 8)
Assay type: binding
Conditions: silver nanoparticles (AgNP, 10 nm), streptavidin-biotin

S14P5-Ag: S14P5 epitope conjugated onto silver nanoparticles (AgNP, 10 nm) through the streptavidin-biotin approach (TESNKKFLPFQQFGRDIA; also: conjugated to silver nanoparticles via streptavidin-biotin)
response upon introduction of COV19 anti-S1 IgGs: visible nanoparticle precipitation
